This test relates to monoclonal antibody 1F3 (mAb 1F3). Briefly: indirect competitive ELISA against Tar-OVA coating antigen. In kind it is binding, Mus musculus. In general terms: ELISA stands for enzyme-linked immunosorbent assay.

Molecules are shown by their SMILES.

`O=C(O)c1nn(-c2ccc(S(=O)(=O)O)cc2)c(O)c1/N=N/c1ccc(S(=O)(=O)O)cc1` [Tartrazine, trisodium 5-hydroxy-1-(4-sulfonatophenyl)-4-(4-sulfonatophenylazo)-H-pyrazol-3-carboxylate] showed an IC50 of 0.105 ng/mL.

The term IC50 denotes the point on the concentration scale where inhibition reaches its midpoint. Lower therefore signals greater potency.

For the origin of these results see publication PMC3758588, “Development of an Ultrasensitive Immunoassay for Detecting Tartrazine” (Sensors (Basel, Switzerland), 2013).
